# Tested on: normal human dermal fibroblasts (NHDF)
# Assay: Gene expression in NHDF, full transcriptome analysis with Affymetrix U219 microarray
# Type: cell-based
# Conditions: NHDF, 10 mg/ml, 24 h
# Description: In the present study, the transcriptional effects (modulation of gene expression) of compounds 1, 2, 3 and 4 were evaluated on normal human dermal fibroblasts (NHDF) under basal conditions.
# More specifically, the comparative analysis of the different transcriptomic profiles was performed using an Affymetrix GeneAtlas platform and the human “full transcriptome” U219 chip, which includes 36,000 transcripts and variants.
# Fibroblasts were seeded in 24-well plates and cultured in culture medium for 24 hours. The medium was then replaced by assay medium and cells were incubated for further 24 hours. The medium was replaced by assay medium containing or not (control) the test compounds at different concentrations and the cells were preincubated for 24 hours. All experimental conditions were performed in triplicate. At the end of incubation, the culture supernatants were removed and the cells were washed in a phosphate buffered saline (PBS) solution and immediately frozen at −80° C.
# Before RNA extraction, the replicates were pooled. Total RNA was extracted from each sample using TriPure Isolation Reagent® according to the supplier's instructions. The amount and quality of total RNA were evaluated for all samples using capillary electrophoresis (Bioanalyzer 2100, Agilent technologies). From each RNA, a labeled and amplified anti-sens RNA (aRNA) was obtained using GeneChip 3′IVT PLUS Kit (Affymetrix). For each labeled and amplified aRNA sample the profiles were evaluated before and after fragmentation using capillary electrophoresis (Bioanalyzer 2100, Agilent technologies). Hybridization of fragmented aRNA onto Affymetrix® U219 chip (36,000 transcripts and variants) was performed in the GeneAtlas™ fluidics Affymetrix® hybridization station for 20 hours at 45° C. U219 chip was analyzed using the GeneAtlas™ Imaging station (Affymetrix®—resolution 2 μm) to generate fluorescence intensity data.
# Expression Console and Quality controls: data were normalized with the Expression Console (Affymetrix®) software using RMA algorithm. Then a quality control of the labeling and the hybridization was performed. Hybridization and labeling steps successfully passed the quality controls for these experiments.
# Data reduction, Excel file description: once normalized with Expression Console, data were transferred into a Microsoft Excel® file in order to go further into data reduction.
# Calculation and tools were added in order to rank and sort data, and finally to support data interpretation. Detection thresholds in terms of fold change were defined and applied on normalized data.
# Results are considered and presented or commented per gene (and not probe). A probe set is a collection of probes designed to interrogate a given sequence of a gene. For data interpretation, the most important relative expression value obtained with one probe is considered to be representative of the corresponding gene. The file contains the following data: • Relative expression (RE) for each sample, • Fold change calculation, • Gene information.
# [1] = relative expression adjusted to detection limit (<20)
compound,measurement,setting,value
N[C@@H](CCCCNCC(F)(F)[C@]1(O)O[C@H](CO)[C@H](O)[C@H](O)[C@H]1O)C(=O)O [Compound 3],"Fold change, FADS1","vs control, Affymetrix probe set 11752670_a_at",3.55
same,"Fold change, TPP1","vs control, Affymetrix probe set 11753248_a_at",2.05
same,"Fold change, GBA///GBAP1","vs control, Affymetrix probe set 11753439_a_at",2.35
same,"Fold change, GBA","vs control, Affymetrix probe set 11753440_x_at",2.30
same,"Fold change, GBA///GBAP1","vs control, Affymetrix probe set 11754819_x_at",2.08
same,"Fold change, LPCAT3","vs control, Affymetrix probe set 11755123_x_at",2.13
same,"Fold change, FADS1","vs control, Affymetrix probe set 11755251_x_at",3.75
same,"Fold change, LPCAT3","vs control, Affymetrix probe set 11757008_a_at",2.39
same,"Fold change, TPP1","vs control, Affymetrix probe set 11757469_s_at",2.14
same,"Fold change, HSD17B14","vs control, Affymetrix probe set 11757575_x_at",2.92
same,"Fold change, TM7SF2","vs control, Affymetrix probe set 11762755_x_at",2.10
same,"REadj2, ACOT1///ACOT2",[1],462.96
same,"REadj2, APOD",[1],154.78
same,"REadj2, DHCR7",[1],1097.58
same,"REadj2, FADS2",[1],263.98
same,"REadj2, GBAP1",[1],186.37
same,"REadj2, HACD1",[1],674.65
same,"REadj2, HMGCS1",[1],1170.64
same,"REadj2, LRP8",[1],125.76
same,"REadj2, MVD",[1],534.91
same,"REadj2, NCOR1",[1],68.44
same,"REadj2, NEU1",[1],722.33
same,"REadj2, NPC1",[1],154.34
same,"REadj2, PHLDB2",[1],66.17
same,"REadj2, PHYH",[1],813.79
same,"REadj2, PLA2G15",[1],82.36
same,"REadj2, PLA2G16",[1],222.24
same,"REadj2, PRKAB2",[1],21.07
same,"REadj2, PTGDS",[1],1080.74
same,"REadj2, SOAT1",[1],393.50
same,"REadj2, SPHK1",[1],195.74
same,"REadj2, SREBF1",[1],312.15
same,"REadj2, TXNRD1",[1],1483.80
same,"REadj2, VAC14",[1],105.84
same,"REadj2, SCD","relative expression adjusted to detection limit (<20), Affymetrix probe set 11715561_s_at",634.95
same,"REadj2, SCD","relative expression adjusted to detection limit (<20), Affymetrix probe set 11715562_x_at",722.36
same,"REadj2, SCD","relative expression adjusted to detection limit (<20), Affymetrix probe set 11715563_s_at",558.17
same,"REadj2, G6PD","relative expression adjusted to detection limit (<20), Affymetrix probe set 11716292_a_at",348.08
same,"REadj2, G6PD","relative expression adjusted to detection limit (<20), Affymetrix probe set 11716293_x_at",239.53
same,"REadj2, INSIG1","relative expression adjusted to detection limit (<20), Affymetrix probe set 11716338_a_at",1101.68
same,"REadj2, INSIG1","relative expression adjusted to detection limit (<20), Affymetrix probe set 11716339_a_at",1249.89
same,"REadj2, PPT1","relative expression adjusted to detection limit (<20), Affymetrix probe set 11716533_a_at",249.91
same,"REadj2, EBP","relative expression adjusted to detection limit (<20), Affymetrix probe set 11717859_a_at",1025.83
same,"REadj2, HSD17B14","relative expression adjusted to detection limit (<20), Affymetrix probe set 11720588_a_at",154.64
same,"REadj2, SERINC2","relative expression adjusted to detection limit (<20), Affymetrix probe set 11721046_a_at",462.86
same,"REadj2, ME1","relative expression adjusted to detection limit (<20), Affymetrix probe set 11726265_at",1130.68
same,"REadj2, CHKA","relative expression adjusted to detection limit (<20), Affymetrix probe set 11736285_a_at",137.49
same,"REadj2, CHKA","relative expression adjusted to detection limit (<20), Affymetrix probe set 11736286_a_at",138.86
same,"REadj2, ASAH1","relative expression adjusted to detection limit (<20), Affymetrix probe set 11740582_a_at",1292.95
same,"REadj2, PPT1","relative expression adjusted to detection limit (<20), Affymetrix probe set 11742107_a_at",289.70
same,"REadj2, ASAH1","relative expression adjusted to detection limit (<20), Affymetrix probe set 11743547_a_at",1038.22
same,"REadj2, PCYT2","relative expression adjusted to detection limit (<20), Affymetrix probe set 11744044_s_at",239.50
same,"REadj2, FADS1","relative expression adjusted to detection limit (<20), Affymetrix probe set 11745459_a_at",1891.83
same,"REadj2, LDLR","relative expression adjusted to detection limit (<20), Affymetrix probe set 11746974_a_at",357.86
same,"REadj2, PCYT2","relative expression adjusted to detection limit (<20), Affymetrix probe set 11747322_s_at",216.32
same,"REadj2, LDLR","relative expression adjusted to detection limit (<20), Affymetrix probe set 11748045_x_at",380.34
same,"REadj2, SERINC2","relative expression adjusted to detection limit (<20), Affymetrix probe set 11748053_x_at",342.33
same,"REadj2, TM7SF2","relative expression adjusted to detection limit (<20), Affymetrix probe set 11748279_s_at",91.54
same,"REadj2, EBP","relative expression adjusted to detection limit (<20), Affymetrix probe set 11749332_x_at",907.86
same,"REadj2, ABHD4","relative expression adjusted to detection limit (<20), Affymetrix probe set 11749343_a_at",66.31
same,"REadj2, ABHD4","relative expression adjusted to detection limit (<20), Affymetrix probe set 11749376_a_at",69.48
same,"REadj2, ME1","relative expression adjusted to detection limit (<20), Affymetrix probe set 11750913_a_at",861.69
same,"REadj2, GBA","relative expression adjusted to detection limit (<20), Affymetrix probe set 11750975_x_at",250.68
same,"REadj2, GBA","relative expression adjusted to detection limit (<20), Affymetrix probe set 11751086_x_at",255.53
same,"REadj2, DHCR24","relative expression adjusted to detection limit (<20), Affymetrix probe set 11751337_a_at",191.39
same,"REadj2, DHCR24","relative expression adjusted to detection limit (<20), Affymetrix probe set 11751338_x_at",364.97
same,"REadj2, G6PD","relative expression adjusted to detection limit (<20), Affymetrix probe set 11752486_a_at",224.35
same,"REadj2, FADS1","relative expression adjusted to detection limit (<20), Affymetrix probe set 11752670_a_at",3012.88
same,"REadj2, GBA","relative expression adjusted to detection limit (<20), Affymetrix probe set 11753440_x_at",139.49
same,"REadj2, FADS1","relative expression adjusted to detection limit (<20), Affymetrix probe set 11755251_x_at",1908.34
same,"REadj2, HSD17B14","relative expression adjusted to detection limit (<20), Affymetrix probe set 11757575_x_at",89.08
same,"REadj2, TM7SF2","relative expression adjusted to detection limit (<20), Affymetrix probe set 11762755_x_at",61.24
